Source: BigSolDB 2.1

CC(=O)C1C(=O)C=C(C)OC1=O (centres undefined)
Conditions | solubility (mole fraction)
in 2-butanone, 288.35 K | 0.0125
in 2-butanone, 292.15 K | 0.0153
in 2-butanone, 296.45 K | 0.0165
in 2-butanone, 300.35 K | 0.0196
in 2-butanone, 304.05 K | 0.0227
in 2-butanone, 308.05 K | 0.0285
in 2-butanone, 312.15 K | 0.0315
in 2-butanone, 315.75 K | 0.037
in DMAc, 288.35 K | 0.0941
in DMAc, 292.15 K | 0.111
in DMAc, 296.45 K | 0.12
in DMAc, 300.45 K | 0.135
in DMAc, 304.45 K | 0.15
in DMAc, 308.25 K | 0.168
in DMAc, 312.15 K | 0.19
in DMAc, 316.35 K | 0.205
in DMF, 288.5 K | 0.0744
in DMF, 292.45 K | 0.0857
in DMF, 296.35 K | 0.093
in DMF, 299.95 K | 0.105
in DMF, 304.45 K | 0.123
in DMF, 307.85 K | 0.139
in DMF, 312.35 K | 0.162
in DMF, 315.85 K | 0.181
in DMSO, 288.15 K | 0.0267
in DMSO, 292.15 K | 0.0314
in DMSO, 296.15 K | 0.0383
in DMSO, 300.15 K | 0.0462
in DMSO, 304.15 K | 0.0544
in DMSO, 308.15 K | 0.0599
in DMSO, 312.15 K | 0.0738
in DMSO, 316.15 K | 0.0874
in acetone, 288.15 K | 0.0477
in acetone, 291.85 K | 0.0547
in acetone, 296.15 K | 0.0587
in acetone, 300.25 K | 0.0695
in acetone, 304.15 K | 0.0812
in acetone, 308.15 K | 0.0964
in acetone, 312.05 K | 0.111
in acetone, 316.25 K | 0.13
in acetonitrile, 288.35 K | 0.039
in acetonitrile, 292.35 K | 0.0489
in acetonitrile, 296.25 K | 0.0557
in acetonitrile, 300.35 K | 0.0634
in acetonitrile, 304.05 K | 0.0733
in acetonitrile, 308.15 K | 0.0887
in acetonitrile, 312.65 K | 0.107
in acetonitrile, 316.25 K | 0.123
in ethanol, 288.25 K | 0.00512
in ethanol, 291.95 K | 0.00652
in ethanol, 296.25 K | 0.00812
in ethanol, 300.35 K | 0.00941
in ethanol, 303.65 K | 0.0109
in ethanol, 308.55 K | 0.0135
in ethanol, 312.65 K | 0.0176
in ethanol, 316.15 K | 0.0217
in ethyl acetate, 288.45 K | 0.0499
in ethyl acetate, 292.45 K | 0.0571
in ethyl acetate, 295.95 K | 0.0646
in ethyl acetate, 300.25 K | 0.0714
in ethyl acetate, 304.05 K | 0.081
in ethyl acetate, 307.95 K | 0.0938
in ethyl acetate, 312.25 K | 0.109
in ethyl acetate, 316.35 K | 0.128
in ethyl formate, 288.05 K | 0.0536
in ethyl formate, 291.95 K | 0.061
in ethyl formate, 296.15 K | 0.067
in ethyl formate, 300.05 K | 0.0765
in ethyl formate, 304.15 K | 0.0894
in ethyl formate, 308.45 K | 0.104
in ethyl formate, 312.45 K | 0.119
in ethyl formate, 315.85 K | 0.135
in isopropanol, 288.05 K | 0.00448
in isopropanol, 292.35 K | 0.0056
in isopropanol, 296.55 K | 0.00709
in isopropanol, 300.15 K | 0.00876
in isopropanol, 304.65 K | 0.0105
in isopropanol, 308.15 K | 0.0127
in isopropanol, 312.35 K | 0.0168
in isopropanol, 315.65 K | 0.0202
in methanol, 288.05 K | 0.00588
in methanol, 292.35 K | 0.00716
in methanol, 296.05 K | 0.00781
in methanol, 300.15 K | 0.0104
in methanol, 303.95 K | 0.0113
in methanol, 308.55 K | 0.0149
in methanol, 312.15 K | 0.0174
in methanol, 316.05 K | 0.022
in n-pentanol, 287.75 K | 0.00604
in n-pentanol, 291.95 K | 0.00758
in n-pentanol, 296.25 K | 0.00959
in n-pentanol, 300.35 K | 0.0117
in n-pentanol, 304.15 K | 0.0148
in n-pentanol, 308.35 K | 0.0189
in n-pentanol, 312.15 K | 0.0233
in n-pentanol, 315.95 K | 0.0284
in n-propanol, 287.95 K | 0.00523
in n-propanol, 292.65 K | 0.00657
in n-propanol, 296.35 K | 0.00836
in n-propanol, 300.55 K | 0.00974
in n-propanol, 304.35 K | 0.0118
in n-propanol, 308.15 K | 0.0143
in n-propanol, 312.65 K | 0.0187
in n-propanol, 316.35 K | 0.0224
